Assay [1] deals with HaCaT cells. Nature of the assay: In-vitro screening with MTT method, inhibition of proliferation of HaCaT cells. In kind it is cell-based, human. As to conditions: Homo sapiens, HaCaT, about 48 hours incubation. The protocol: Compound No. 5 was dissolved in DMSO, and gradiently diluted with PBS to prepare solutions at concentration of 1000 μg/ml, 100 μg/ml, 10 μg/ml, 1 μg/ml, 0.1 μg/ml, and 0.01 μg/ml, respectively. Cis-platinum (CDDP) was used as positive control, and sample solutions were prepared with the same method. The sample solutions were added into a 96-well plate placed with the growth phase human immortalized keratinocyte (HaCaT) cells (Pharmacology Laboratory of Shanghai Institute of Pharmaceutical Industry), and were incubated for about 48 hours. The cell relative survival rate was determined by the MTT method, and calculated according to the following formula based on the light absorption value at […]. Cell relative survival rate=(Light absorption value of sample treatment group—background light absorption value)/(Light absorption value of DMSO treatment group—background light absorption value).

Assay [2] deals with chick chorioallantoic membrane. The experiment in a line: Chick chorioallantoic membrane (CAM) angiogenesis model. Type of assay: in vivo, chicken. As to conditions: 100 μg/egg. As to the method: Fresh eggs were incubated for 6 successive days under 37° C. and 50% humidity. On the 6th day, live eggs were identified and taken out for window-opening. First, the chorioallantoic membrane was located with illumination. Droplets of Compound No. […] After air dry, the filter paper was placed on the chorioallantoic membrane gently without contacting big vessels. The window was sealed with a transparent adhesive tape. The eggs were incubated for 48 hours continuously. The transparent adhesive tape was then uncovered. The window was enlarged and photos were taken under a dissecting microscope (FIGS. 2 A-B). New vessels were counted based on the number of blood vessel branch points in each photo. Inhibitory rate=100−[(number of new blood vessels in treatment group at 24 h)/(number of new blood vessels in treatment group at 0 h)]/[(number of blood vessels in negative control group at 24 h)/(number of blood vessels in negative control group at 0 h)]×100%.

Assay [3] relates to HaCaT cells. Nature of the assay: Morphological examination of the effect on HaCaT cell differentiation. Type of assay: cell-based, human. The protocol: HaCaT cells were cultured in DMEM culture medium containing 10% FBS under 37° C. and 5% CO2 concentration. When reaching 80% of the culture bottle area and after digestion by 0.25% trypsin, the cells were adjusted to a concentration of 4×10^4/ml and moved to a 6-well plate respectively (containing sterilized slide). Compound solutions were added. The cells were applied to the corresponding wells, and a blank control group (saline) was set. Both the sample groups and the control group were placed in a cell incubator at 37° C. Immumohistochemical staining was conducted after incubation at 48 h.
The imagine in FIG. 1A is dark brown, indicating large amount of keratin is present. […] Compound No. 5 underwent cornification (positive result).

In assay [4] the test system is mouse vaginal epidermal cells. The experiment in a line: Effect on mitosis of mouse vaginal epidermal cells. Type of assay: in vivo. Particulars: 25 μl intravaginal once daily, 3 days, estradiol-treated mice, n = 6. The protocol:
Except for the saline control group, sexually mature female mice were injected with estradiol subcutaneously at a dosage of 35 mg/kg for 3 successive days. On the fourth day, in-estrus mice were selected with vaginal smear. The mice were randomly divided into several groups: (a) saline control group, saline was used in each administration; (b) blank cream group, blank cream was used in each administration; (c) calcipotriol control group, calcipotriol in cream (5% w/w) was used in each administration; (d) four testing groups, Compound No 5 in cream at concentration of 0.5%, 1%, 2%, and 4% (w/w), respectively, was used in each application. 25 μl corresponding treatment was injected into the vagina of the mice once daily for 3 successive days. Colchicine (15 mg/Kg) was intraperitoneally injected 2 hours after the last dosing. The mice were sacrificed 6 hours after the injection of colchicine. The vaginal tissue was taken out for pathological examination. The number of mitosis in one hundred basal cells was counted, which was named as the mitotic index.

The test system of assay [5] is mouse tail epidermis. Nature of the assay: Effect on mouse tail epidermis (granular layer of tail scales). Particulars: 100 μl once daily, 7 days, female mice, n = 10. In kind it is in vivo. The protocol: 70 female mice were randomly divided into several groups: (a) saline control group, saline was used in each administration; (b) blank cream group, blank cream was used in each administration; (c) calcipotriol control group, calcipotriol in cream (5% w/w) was used in each administration; (d) four testing groups, Compound No 5 in cream at 0.5%, 1%, 2%, and 4% (w/w), respectively, was used in each administration. 100 μl of corresponding treatment was applied to the same position on the tail of the mice once daily for seven successive days. The mice were sacrificed 1 hour after the last application. The treated skin parts were taken for pathological examination, and the tail scales of each mouse was assessed under a microscope. The number of scales having a granular layer in every 100 scales was counted, and the result was expressed as percentage.

For assay [6], the system named is guinea pig ear epidermis. Nature of the assay: Propranolole hydrochloride-induced psoriasis in guinea pig model. Type of assay: in vivo. As to conditions: 200 μl on both ears twice daily, 7 days. As to the method: Except for those in Saline control group, guinea pigs were treated with propranolole hydrochloride cream (5% w/w, 200 μl) uniformly applied on the back of both ears twice daily for four successive weeks. After four weeks, the […] were divided into several groups, namely, blank cream group, calcipotriol group, and four testing cream groups with Compound 5 at concentration of 0.5%, 1%, 2%, and 4% (w/w)), respectively. The guinea pigs in Saline control group were treated with saline on the back of both ears; the guinea pigs in other groups were treated with corresponding cream on the back of both ears (200 μl) twice daily for 7 successive days. The guinea pigs were examined during the experiment period and sacrificed 1 hour after the last dosing.

As usually defined, the IC50 is the concentration that gives 50% inhibition.

Values after ≈ are worked out from the molar mass of the structure shown.

Take `Cc1cnc(Nc2ccc(F)cc2Cl)nc1-c1cc2n(c1)CCN([C@H](CO)c1cccc(Cl)c1)C2=O` [Compound 5, (S)-7-(2-((2-chloro-4-fluorophenyl)amino)-5-methylpyrimidin-4-yl)-2-(1-(3-chlorophenyl)-2-hydroxyethyl)-3,4-dihydropyrrolo[1,2-a]pyrazin-1(2H)-one]: the IC50 in assay [1] was 544 µg/mL (≈ 1030 µM). Besides, in assay [2] (0 h, n = 3), the “Number of new blood vessels 0 h” value worked out at 18.83 ± 5.60. For the same molecule, in assay [2] (48 h, n = 3), the “Number of new blood vessels 48 h” value amounted to 16.00 ± 5.73. Also, in assay [2] (48 h, versus PBS group), the “Inhibitory rate (%)” value is listed as 125.76%. Moreover, in assay [3] (100 μg/ml, 48 h, inverted microscope x200, FIG. 1A), the “Differentiation of HaCaT cells (keratin, cornification)” value was “induced differentiation of HaCaT cells”. The “Test Results, effect on HaCat cell differentiation” value in assay [3] (48 h incubation, immunohistochemical staining) was “Positive”. The “Mitotic cell number/total cell number (%)” value came out at 18.33 ± 1.86 % in assay [4] (cream 0.5% (w/w)), 15.00 ± 3.35 % in assay [4] (cream 1% (w/w)), 14.83 ± 2.48 % in assay [4] (cream 2% (w/w)) and 14.50 ± 3.62 % in assay [4] (cream 4% (w/w)). For the same molecule, the “Scales quantity in granular layer * 100%” value in assay [5] (cream 0.5% (w/w)) is given as 42.40 ± 3.03 %; in assay [5] (cream 1% (w/w)), 47.00 ± 5.29 %; in assay [5] (cream 2% (w/w)), 50.80 ± 7.50 %; in assay [5] (cream 4% (w/w)) it was 58.80 ± 7.64 %. The “Epidermal thickness (μm)” value in assay [6] (cream 0.5% w/w) stood at 190.31 ± 17.89 μm; in assay [6] (cream 1% w/w), 180.74 ± 11.05 μm; in assay [6] (cream 2% w/w), 156.59 ± 13.25 μm; in assay [6] (cream 4% w/w), 128.96 ± 13.61 μm.

These data come from patent publication US10238657B2, “Heterocyclic compounds for treating psoriasis” (JS INNOPHARM (SHANGHAI LTD.), priority 2015, dated 2019).
